Test results from patent publication US20250388597A1, “BIFUNCTIONAL PHOTOCROSSLINKING PROBES FOR COVALENT CAPTURE OF PROTEIN-NUCLEIC ACID COMPLEXES IN CELLS” (UNIVERSITY OF SOUTHERN CALIFORNIA, priority 2022, published 2025).

Experiments:
MEF2A/DNA complex = molecular target: T1, MEF2A/DNA complex (Homo sapiens, UniProt Q02078); experiment: In vitro photo-crosslinking of assembled MEF2/DNA complex, read on denaturing SDS/urea gel or agarose gel; format: biochemical; conditions: for formation of covalent MEF2/DNA crosslinked complex: probe + UV, denaturing gel
T1 construct: human MEF2A DBD (residues 2-95); made in house
T1 sequence (Q02078 2-95): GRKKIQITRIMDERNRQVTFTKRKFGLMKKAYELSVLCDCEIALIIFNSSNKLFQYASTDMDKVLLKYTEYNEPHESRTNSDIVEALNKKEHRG
Text: In vitro assays have confirmed the success and the efficiency of the demo probe (AMT-LC-SDA) in crosslinking double strand DNA of various contents and DNA-binding protein human myocyte enhancer factor 2A (MEF2A) (1-95 aa) (FIG. 5C-FIG. 5E). The solid crosslinking is confirmed for the probe with UV photo crosslinking conditions by denaturing or digestive approaches such as running with 8.3 M urea gel, SDS gel, combined with sample with overnight digestion of proteinase K at 65 Celsius and denatured at high temperature of 95 Celsius with SDS loading dye. […] Under these harsh evaluation conditions, the protein got digested on the crosslinking complex thoroughly, yet the remaining crosslinked amino acids residuals still have made the DNA to be in a larger size and shifted clearly compared to other controls, which is indicated by the bold shaped arrow. Agarose gel was also used for its bigger pore size to estimate the crosslinking efficiency (UV 2 hrs), estimated by the amount of the left free DNA, our probe has reached around 30-60% efficiency (FIG. 5E), which is much higher than the UV-initiated protein DNA crosslinking without the use of a probe (10-20%) as reported in Nature Communications, volume 11, Article number: 3019 (2020). […] This further supports the idea of applying this probe for replacement of formaldehyde, it crosslinks the protein only within the proximity of nucleic acids, thereby largely reducing the random protein-protein crosslinking noise and helps to preserve the native state of protein epitopes.
The BFPX probe 4AMT-LC-SDA was synthesized with good yield by the NHS-amine chemistry using psoralen and diazirine derivatives (FIG. 5A, FIG. 5B). To test its photo crosslinking ability, human transcription factor MEF2A (the MADS-box/MEF2 domain) and double strand DNA containing a MEF2 binding site were used. We first used electrophoresis mobility shift assay (EMSA) to validate the activity of the purified recombinant MEF2A DNA-binding domain. After finding out the optimal protein to DNA ratio, the in vitro assembled MEF2/DNA complex was then subject to photocrosslinking in the presence or absence of the 4AMT-LC-SDA probe with or without UV illumination. Multiple other control experiments were carried out in parallel to test the specificity of photocrosslinking between the DNA and MEF2. Specifically, parameters such as protein/DNA amounts (1:[…]), ratio, UV time (10 m to 4 hrs), wavelength (320 to 360 nm), LV source (mercury long lamp, LED) and their distance to the reaction mixture have been optimized along the course. The MEF2 Protein and DNA were incubated first to mimic an in vivo binding mode and stoichiometry, and then the mixture was incubated with our 4AMT-LC-SDA probe to undergo UV illumination. The results were evaluated by running denaturing gels (SDS in FIG. 5D, or Urea in FIG. 5C) against the high temperature denatured reaction mixtures and checking the respective protein (silver stain) or DNA (FAM label) signals. To further rule out any other possible false positiveness during loading, proteinase K digestion was applied to all the samples including the negative controls with SDS at 65 degrees.

[1] = Precipitation of probe in the aqueous crosslinking reaction; format: physicochemical; conditions: aqueous binding reaction; SPB-AAD 125 μM (FIG. 7 lanes 4, 9); SPB-PEG3-AAD 100 μM (FIG. 8C lanes 2, 6)
Procedure: The robust stability of these complexes under strong denaturing conditions (2% SDS and boiling for 10 min) is consistent with the covalent nature of the crosslinking reaction as designed in BFPX. […] As the probe concentration increased, more crosslinked protein/DNA complexes were formed, and the multiple bands likely represented protein-DNA complexes with various degrees of crosslinking, because multiple SPB-AAD molecules could bind the flanking region of the DNA binding sites and engage crosslinking reactions with the protein. At high probe concentrations (lane 5 and lane 10), the complexes become more uniform, likely due to the saturation binding of the BFPX probe to DNA.
For the BFPX probe SPB-PEG3-AAD, when the probe concentration was sufficiently high (lane 3 and lane 7 of FIG. 8C), the crosslinking efficiency was more than 90% for the MEF2/DNA complex based on the DNA signal (comparing lane 3 and lane 1 in the 5FAM gel, the free DNA in lane 3 was nearly all gone as compared the strong band in lane 1). This is consistent with the protein signal (compare lane 3 and lane 1 in the CCB-250 stained gel, the free protein in lane 3 was very faint as compared with the strong band in lane 1).

Row | SMILES | low probe concentration at which a significant amount of crosslinked protein complex was observed (MEF2A/DNA complex; MEF2/DNA, FIG. 7 lane 7, UV 365 nm) [µM] | crosslinking efficiency (percentage of native protein-DNA complex being covalently crosslinked) (MEF2A/DNA complex; MEF2/DNA, FIG. 7 lane 5 (12.5 μM probe) vs lanes 1-3, free DNA FAM signal, UV 365 nm) | UV illumination time at which crosslinked complex was visible (MEF2A/DNA complex; MEF2/DNA, probe 100 μM) [s] | UV illumination time at which crosslinking reached plateau (MEF2A/DNA complex; MEF2/DNA, probe 100 μM, plateau around 100 seconds and 5 min time points) | formation of covalent MEF2/DNA crosslinked complex (MEF2A/DNA complex) | precipitation of probe at highest probe concentration [1] | crosslinking efficiency based on the DNA signal (MEF2A/DNA complex; MEF2/DNA, FIG. 8C lane 3 (10 μM probe) vs lane 1)
1 | C#CCCC1(CCNC(=O)CCCOc2c3occc3cc3ccc(=O)oc23)N=N1 [SPB-AAD, N-(2-(3-(but-3-yn-1-yl)-3H-diazirin-3-yl)ethyl)-4-((7-oxo-7H-furo[3,2-g]chromen-9-yl)oxy)butanamide] | 0.125 | 80-90% | 3 | around 100 seconds | formation of complexes that run as larger molecular species than both free protein and DNA | precipitation of the probe in an aqueous solution | 
2 | C#CCCC1(CCNC(=O)CCOCCOCCOCCC(=O)NCCNC(=O)CCCOc2c3occc3cc3ccc(=O)oc23)N=N1 [SPB-PEG3-AAD] |  |  |  |  | highly efficient crosslinking | the probe precipitated out of solution | more than 90%
